The values that follow come from patent US8759364B2, “Methods of treating bone mass diseases” (The Trustees of Columbia University in the City of New York, priority 2008, dated 2014).

Each structure is given as a SMILES string. Several values for one entry are separate records, joined by “and”; a condition that tells them apart may be missing. Identical values can stand only once. Like-named read-outs stand apart in the source and are kept apart here.

For series [1] the following is noted: given orally, cited from earlier work.
The subject of a further series is peripheral serotonin. Briefly: Effect of oral CBMIDA on peripheral serotonin production in mice (serum serotonin ELISA), Example 1. Type of series: in vivo. The following applies: for reduction of peripheral serotonin measured in serum: 4 week old mice. As for the experimental part:
The ability of selective TPH1 inhibitor CBMIDA to reduce peripheral serotonin measured in serum was tested. Either 250 or 500 mg/kg doses of CBMIDA were administered orally twice in 20 hours to 4 week old mice, 4-5 mice per group. As a control, some mice were untreated and some received 250 mg/kg pCPA orally. […] CBMIDA has been reported to be an EDTA analog that increases osteoid volume in beagle dogs and induces proliferation of rat calvarial-derived osteoblasts in vitro (Xie, et al., Bioorganic & Medicinal Chemistry Letters 15 (2005) 3267-3270, incorporated herein by reference in its entirety).
One month old C57Bl/6 inbred male mice, weighing 15-16 g were used in the experiments. Animals were housed under 12 h light/12 h dark conditions in a room with controlled temperature (22° C.) and humidity (60%). Mice had ad libitum access to food and water, and were used after a minimum of 4 days of acclimatization to the housing conditions. All experiments were conducted following Columbia University Guidelines for the Animal Use and Care of laboratory mice.
Before the experiments, animals were separated into individual cages one day prior to the experiment. Compounds were fed orally (gavage) to the mouse, calculated according to the weight of the mouse, twice a day at 1700 h and at 1100 h. […] This route created two potential barriers for the compound to reach the brain. […] Control animals received the same volume of vehicle. Blood was collected through heart puncture on isofluorane-anaesthesized animals and allowed to clot for 5 minutes on ice. The serum was separated, snap chilled in liquid nitrogen and frozen at −80° C. till analyzed. Brainstems from all the animals were collected and processed for brain serotonin measurement through HPLC.
(§1) The Serotonin ELISA kit obtained from the Fitzgerald company was used to measure derivatized serotonin from serum. Derivatization is part of the sample preparation. Serotonin present in the serum was first quantitatively acylated into N-Acylserotonin using the acylation reagent. The principle of the assay is based on competitive ELISA, wherein serotonin that is bound to the solid phase of the plate and the N-acylserotonin compete for the fixed number of antiserum binding sites. When the reaction is in equilibrium, free antigen and free antigen-antiserum complexes are removed by washing.
The antibody bound to the solid phase serotonin is then detected using antirabbit/peroxidase. The substrate TMB/Peroxidase reaction is read at 450 nm. The amount of antibody bound to the solid phase serotonin is inversely proportional to the concentration of serotonin in the sample.
Catechol-3,6-bis methyleneiminodiacetic acid (CBMIDA) (basic structure is an EDTA-like compound and the catechol ring is at the centre) synthesized at the Columbia University Chemistry division, and para-chlorophenylalanine (pCPA) obtained from Sigma Aldrich Corp. were used. Each compound was dissolved with twice molar solution of NaHCO3 in water and given to mouse orally at 250 and 500 mg/kg/dose.
On the technique in general: In an ELISA, binding on a coated surface is turned into a signal by an enzyme label.

The test system of series [2] is peripheral serotonin production. Kind of series: Pilot study of tryptophan hydroxylase inhibitors on peripheral serotonin production in ovariectomized mice, Example 12. The series is classed as in vivo. The following applies: for effect on serotonin levels: oral (gavage) twice a day, dose not given. As for the experimental part: 6-week old C57Bl/6 inbred female mice, weighing 12-14 g, were used in the experiments. Animals were housed under 12 h light/12 h dark conditions in a room with controlled temperature (22° C.) and humidity (60%). Mice had ad libitum access to food and water, and were used after a minimum of 4 days of acclimatization to the housing conditions. All experiments were conducted following Columbia University Guidelines for the Animal Use and Care of laboratory mice.
Animals were separated into different groups one day prior to the experiments. Mice were ovariectomized (OVX) under anaesthesia (Avertin). Compounds were fed orally (Gavage) twice a day at 1700 h and at 1100 h for the pilot study while for the long term study compounds were given at 1700 h once a day. […] This route creates two potential barriers for the compound to reach the brain. […] Control animals received the same volume of vehicle. Blood was collected through heart puncture on isofluorane-anaesthesized animals, allowed to clot for 5 minutes on ice and then serum was separated, snap chilled in liquid nitrogen and frozen at −80° C. till analyzed. Mice were observed daily for any physical or behavioral abnormality during the course of investigation.
• Group 1: Vehicle • Group 2: Compound 1 • Group 3: Compound 2 • Group 4: Compound 3 • Group 5: Compound 4 (LP-533401) Experiment II: Effect of Compounds 1 and 4 on Protection from OVX-Induced Bone Loss Protocol 1: Gavage Feeding of the Compounds Will be Started 1 Day after OVX for 6 Weeks • Group 1: Sham treatment • Group 2: OVX • Group 3: OVX+Compound 1 (250 mg/kg) • Group 4: OVX+Compound 1 (500 mg/kg) • Group 5: OVX+Compound 4 (250 mg/kg) Protocol 2: Gavage Feeding of the Compounds Will be Started 2 Weeks after OVX for 6 Weeks • Group 1: Sham treatment • Group 2: OVX • Group 3: OVX+Compound 1 (250 mg/kg) • Group 4: OVX+Compound 1 (500 mg/kg) • Group 5: OVX+Compound 4 (250 mg/kg) Protocol 3: Gavage Feeding of the Compounds Will be Started 4 Weeks after OVX for 6 Weeks • Group 1: Sham treatment • Group 2: OVX • Group 3: OVX+Compound 1 (250 mg/kg) • Group 4: OVX+Compound 1 (500 mg/kg) • […] Serotonin Measurement in Serum
as §1, with “acylated” for “acylated into N-Acylserotonin”, “reagent into N-Acylserotonin.” for “reagent.”, “washing. The antibody bound to the solid phase serotonin is then detected by anti-rabbit/peroxidase. The substrate TMB/Peroxidase reaction is read at 450 nm. The amount of antibody bound to the solid phase serotonin is inversely proportional to the concentration of serotonin in the sample.” for “washing.”
We used Catechol-3,6-bis methyleneiminodiacetic acid [(CBMIDA) Compound 1: basic structure is a EDTA-like compound and the catechol ring is at the center)] synthesized at the Columbia University Chemistry division and para-Chlorophenylalanine (pCPA) obtained from Sigma Aldrich Corp. for our experiments. Compounds were dissolved with twice molar solution of NaHCO3 in water and given to mice orally at 250 and 500 mg/kg/dose. Compounds 2 and 3 were dissolved in water.

The test system of another series is osteoid volume. The conditions noted are these: beagle dogs; cited from earlier work.
Series [3] deals with rat calvarial-derived osteoblasts. The following applies: in vitro; cited from earlier work.
A further series concerns brain-derived serotonin. The following applies: mice, twice per day over 3-4 days, about 30-90 mg/kg; cited from earlier work.
The test system of series [4] is Serotonin levels in the small intestine. The following applies: mice, twice per day over 3-4 days, about 30-90 mg/kg; after six consecutive doses; cited from earlier work.
In a further series the target is rb 5-HT1B receptors (Oryctolagus cuniculus, UniProt P49144). The following applies: cited from earlier work.
rb 5-HT1B receptors, sequence (P49144 whole entry): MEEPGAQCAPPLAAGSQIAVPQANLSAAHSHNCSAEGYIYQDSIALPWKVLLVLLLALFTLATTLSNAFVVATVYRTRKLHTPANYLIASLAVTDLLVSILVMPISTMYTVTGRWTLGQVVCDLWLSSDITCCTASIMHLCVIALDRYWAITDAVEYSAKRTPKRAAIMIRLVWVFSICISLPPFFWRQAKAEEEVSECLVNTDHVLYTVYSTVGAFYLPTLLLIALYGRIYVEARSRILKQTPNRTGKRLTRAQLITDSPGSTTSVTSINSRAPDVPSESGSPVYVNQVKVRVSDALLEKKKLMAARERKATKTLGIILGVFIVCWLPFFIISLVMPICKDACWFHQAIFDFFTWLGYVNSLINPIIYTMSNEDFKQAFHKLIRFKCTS
In the next series the test system is primary osteoblasts. Kind of series: Real-time PCR of cyclin and osteoblast-specific gene expression in primary osteoblasts treated with serotonin. The series is classed as cell-based, mouse. The following applies: serotonin 50 to 100 μM, 24 hr, versus vehicle, FIG. 8B. As for the experimental part:
To test whether serotonin regulates the expression of cyclins in osteoblasts, a real-time PCR analysis of cyclin expression in primary osteoblasts treated with serotonin or vehicle was performed. […] In contrast, expression of Runx2, Osteocalcin and Type I collagen was not modified (FIG. 8B).
Calvaria osteoblasts were extracted by triple collagenase/trypsine digestion from 4 day-old CD1 pups and differentiated with ascorbic acid as previously described (Ducy et al., 2000, Cell 100:197-207).
(§2) Osteoblasts were treated in serum-free medium with vehicle or Serotonin (50 to 100 μM, Sigma) for 24 hr. Total RNA were extracted with Trizol (Invitrogen). cDNA were generated using the ABI Reverse transcriptase system and random hexanucleotide primers. Real-time PCR was performed using superarray primers on a Stratagene real time PCR cycler and Actin expression was used as endogenous control. Chromatin immunoprecipitation assays (ChIP) were performed by standard procedures using primary osteoblasts. Microarray analysis was performed as described previously (Glass et al., 2005, Dev. Cell 8:751-764).
(In qPCR the cycle at which signal appears reflects the starting amount.)

Another series concerns CREB. Kind of series: CREB phosphorylation (Western blot) and CREB binding to Cyclin D1 promoter (ChIP) in primary osteoblasts treated with serotonin. The series is classed as cell-based, mouse. On the procedure: Decreased expression of Cyclin D1 is a major feature of both Lrp5 deficiency and serotonin treatment of osteoblasts (FIGS. 1 and 8). One transcription factor that is known to modulate the expression of cyclin genes and is expressed in osteoblasts is CREB (Fu et al., 2005, Cell 122:803-815). Therefore, whether serotonin could decrease CREB activity in these cells was tested. […] Furthermore, a CREB binding site in the Cyclin D1 mouse promoter was identified and it was shown using ChIP assays that serotonin decreased binding of CREB to this promoter (FIG. 9B). These two observations raise the hypothesis that CREB could be mediating serotonin action on osteoblasts.
as §2
Osteoblasts were treated in serum-free medium with vehicle or Serotonin (50 to 100 μM, Sigma) for 24 hr. […]

Regarding `O=C(O)CN(CC(=O)O)Cc1ccc(CN(CC(=O)O)CC(=O)O)c(O)c1O` [CBMIDA, Catechol-3,6-bis methyleneiminodiacetic acid], the “share of the oral amount transported into the circulation (blood)” value in [1] is 3-5% and 5-10%; in series [1] (listed as Compound 1), 5-10%. The “reduction of peripheral serotonin measured in serum” value was approximately 45% in the series on peripheral serotonin (250 mg/kg orally twice in 20 hours) and “about 80%” in the series with peripheral serotonin (500 mg/kg orally twice in 20 hours). Moreover, the “decrease of serotonin serum levels” value with peripheral serotonin (250 mg/kg, oral, compared with 500 mg/kg, FIG. 11) was “lesser extent”; in series [2] (250 mg/kg, oral, compared with 500 mg/kg), “lesser extent”. Further, the “serotonin serum levels decreased to % below normal” value in the series with peripheral serotonin (500 mg/kg twice daily, oral, FIG. 11) amounted to 80%; in series [2] (500 mg/kg twice daily, oral, FIG. 15), 80%. In addition, the “dose response of serum serotonin reduction” value with peripheral serotonin (250 and 500 mg/kg versus control animals) is on record as “dose response curve”. Also, in the series with peripheral serotonin (FIG. 11 legend), the “peripheral serotonin upon oral feeding” value is “reduces”. For the same compound, the “dose response of serotonin levels” value in [2] (different doses compared to control animals, FIG. 15) is listed as “dose response curve”. The osteoid volume result with osteoid volume is “increases”. In [3], the proliferation of osteoblasts result is listed as “induces”.

Take `NC(=O)CN(CC(=O)O)Cc1ccc(CN(CC(N)=O)CC(=O)O)c(O)c1O` [Compound 2]: the “effect on serotonin levels” value in series [2] (pilot study) is on record as “minimal effect”.

Turning to `CN1CCc2cccc3c2[C@H]1Cc1cc(CN(CC(=O)O)CC(=O)O)c(O)c(O)c1-3` [Compound 3], the “effect on serotonin levels” value in series [2] (pilot study) was “decreased the serotonin levels dramatically”. In addition, the “toxicity to the animals (looked very lethargic and sick)” value in series [2] (oral, pilot study) was “toxic”.

`CCOC(=O)[C@@H](N)Cc1ccc(-c2cc(OC(c3ccc(-c4cccc(F)c4)cc3)C(F)(F)F)nc(N)n2)cc1` (stereo partly drawn) [LP-615819]: the brain-derived serotonin entry in the series on brain-derived serotonin is “unchanged”. Moreover, the “Serotonin levels in the small intestine” value in series [4] is reported as “significantly lowered”.

For the compound `O=C(c1ccc(F)cc1)C1CCN(CCn2c(=O)[nH]c3ccccc3c2=O)CC1` [ketanserin], the behaviour as antagonist result on rb 5-HT1B receptors is “as silent, competitive”.

Take `CSc1ccc2c(c1)C(N1CCN(C)CC1)Cc1ccccc1S2` (stereo not drawn) [methiothepin]: the behaviour as antagonist entry at rb 5-HT1B receptors is given as “as silent, competitive”.

On to `NCCc1c[nH]c2ccc(O)cc12` [serotonin, 5-hydroxytryptamine], for which, in the series with primary osteoblasts, the “expression of Cyclin D1 and D2” value was “decreased”; the “expression of Runx2, Osteocalcin and Type I collagen” value was “not modified”. Moreover, in the series on CREB (FIG. 9A), the CREB phosphorylation entry is reported as “significantly decreased”. The “binding of CREB to the Cyclin D1 promoter (ChIP)” value in the series with CREB (FIG. 9B) is on record as “decreased”.
